Here are results for ten compounds from US20110269793A1, “METHOD FOR PREVENTING TAU PROTEIN AGGREGATION AND TREATING ALZHEIMER'S DISEASE WITH A QUINOLINE DERIVATIVE COMPOUND” (priority 2010, published 2011).

pKd, pKi: −log10 of the molar value. Where two headings read alike, the source gives them in different places.

Data set [1] is described as follows: Octanol/water partition coefficient (Log P). Type of data set: physicochemical. The settings on record: for Liposolubility expressed as Log P (in words): as candidates to cross the BHE; for logP: n-octanol / PBS 0.1× buffer, read-out: Log P (experimental). As to the method:
Pharm. Hung. 62 (1-2): 55-64, wherein 2 phases are used, an aqueous phase comprising a buffer solution PBS 0.1× pH 7.4 that is saturated with an n-octanol solution that comprises the organic phase.
Stock solutions at 1.0 mg/mL of each quinoline being studied were prepared in PBS buffer 0.1× pH 7.4 saturated in octanol. […] Starting from these solutions, dilutions were made for a range concentration of between 1.0 mg/mL and 100 μg/mL to establish their maximum absorbance in the UV-visible region.
Then the tested quinolines were dissolved in PBS 0.1× pH 7.4 saturated in n-octanol and agitated for 30 min. at room temperature. Subsequently, this emulsion was left to settle for 48 h and a centrifugation at 3,000 rpm for 10 minutes was carried out to separate the phases. Both the octanol/water partition coefficient and Log P were established using the difference in the absorbance in the UV-visible region for each compound using equation 1:
[THQ in octanol]=[THQ start]−[THQ buffer] Éq. 1:
The concentrations for THQ start are established using equation 2: […]
Subsequently, the P quotient in established between both phases as described by equation 3: […]
Finally the partition coefficient is established by Log P.
For this test 2 controls were used: clidinium bromide that is a quaternary amine that is not liposoluble, and sodium thiopental, which is a very liposoluble barbituric anaesthetic. Each part of the test was done in triplicate.

Data set [2] deals with T1, hTau protein (Homo sapiens, UniProt P10636). Kind of data set: biochemical.
T1 sequence (P10636 with tags, fused parts or gaps): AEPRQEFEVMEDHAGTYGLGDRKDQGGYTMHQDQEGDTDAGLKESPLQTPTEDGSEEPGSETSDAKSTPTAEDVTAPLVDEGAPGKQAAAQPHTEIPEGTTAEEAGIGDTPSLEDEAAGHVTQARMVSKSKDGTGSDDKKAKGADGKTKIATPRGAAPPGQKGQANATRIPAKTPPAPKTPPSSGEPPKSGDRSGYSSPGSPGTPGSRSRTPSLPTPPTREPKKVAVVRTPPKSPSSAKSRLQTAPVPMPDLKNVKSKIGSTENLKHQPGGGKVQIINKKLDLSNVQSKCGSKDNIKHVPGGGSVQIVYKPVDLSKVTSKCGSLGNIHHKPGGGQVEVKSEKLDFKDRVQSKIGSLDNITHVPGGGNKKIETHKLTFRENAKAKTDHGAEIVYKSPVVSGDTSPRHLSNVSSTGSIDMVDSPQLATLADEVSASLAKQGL
Procedure: (§4) Subsequently, the tau protein, ^3H-AST and the quinolines are incubated for 4 hours at 25° C. under gentle agitation and the procedure depicted in FIG. 3 is followed.
Data set [3] addresses T1, hTau protein. The settings on record: hTau 230 nM, ^3H-AST 52 nM, cold ligand 10 nM to 10 μM.
Procedure: as §4
Data set [4] concerns the target mGluR I (Homo sapiens, UniProt Q13255). To be noted: Yanamala et al. 2008; cited from earlier work.
The test system of data set [5] is Human PHFs. The data set can be described thus: Scatchard saturation test with ^3H-AST, PHFs. Type of data set: binding. The text has this:
(§1) Interactions of quinolines with tau and in vitro displacement tests with H^3-AST. In previous laboratory tests by the inventor and also from other authors (Okamura N., Suemoto T., Furumoto S., Suzuki M., Shimadzu H., Akatsu H., Yamamoto T., Fujiwara H., Nemoto M., Maruyama M., Arai H., Yanai K., Sawada T., Kudo Y. (2005), Quinoline and becimidazole derivatives: candidate probes for in vivo imaging of tau pathology in Alzheimer's disease, J. Neurosci. 25: 10857-10862; Rojo L., Avila M., Chandia M., and Maccioni R. B. (2007), ^18F Lansoprazole as PET radiotracer, Chemical and biological studies towards the development of a New PET Radiotracer, International Conference on Clinical PET and Molecular Nuclear Medicine. 10-14 November, Bangkok) the Kd and binding maximums specific to some benzimidazols of clinical use were established, among them [O-methyl-3H]-astemizol (FIG. 2) through the interaction established with the tau protein. With this background Scatchard and displacement tests are performed with the quinolines mentioned before.
(§2) For the Scatchard test a fixed tau protein concentration (230 nM) and variable concentrations of ^3H-AST between 10 and 120 nM was used, leading to a final volume of 20 μL with 8% ethanol (EtOH 8%). The tau protein underwent treatment previous to this test, incubating the same at 37° C. under gentle agitation for 7 days. Subsequently the tau protein and ^3H-AST were incubated for 4 h at 25° C. under gentle agitation. Then this solution was filtered under vacuum for 10 minutes and the filtering papers were dried at room temperature, and transferred to a vial with 1.0 mL of scintillating liquid. It is then left in the dark and finally the counts per minute (cpm) are measured in a scintillating counting equipment.

For data set [6], the target named is Human Tau (441a.a.) (Homo sapiens, UniProt P10636). Kind of data set: Scatchard saturation test with ^3H-AST, tau filaments. The data set is classed as binding. The settings on record: for Affinity to tau filaments (in words): saturation studies, FIG. 12.
Sequence of Human Tau (441a.a.) (P10636 1-441 isoform P10636-8): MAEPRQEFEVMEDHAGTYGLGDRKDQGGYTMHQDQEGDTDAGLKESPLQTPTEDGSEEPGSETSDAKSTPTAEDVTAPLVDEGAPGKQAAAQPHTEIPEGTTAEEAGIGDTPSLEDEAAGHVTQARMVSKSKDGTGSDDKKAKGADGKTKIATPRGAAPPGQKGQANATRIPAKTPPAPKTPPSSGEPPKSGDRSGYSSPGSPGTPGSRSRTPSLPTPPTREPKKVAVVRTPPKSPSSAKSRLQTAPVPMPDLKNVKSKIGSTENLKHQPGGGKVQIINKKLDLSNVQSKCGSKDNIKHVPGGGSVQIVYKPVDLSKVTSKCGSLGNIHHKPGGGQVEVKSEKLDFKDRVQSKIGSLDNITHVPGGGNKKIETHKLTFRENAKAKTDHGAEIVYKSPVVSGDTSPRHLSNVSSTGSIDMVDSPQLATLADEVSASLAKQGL
Source text: as §1, §2

Data set [7] deals with tau protein from bovine brain. To be noted: 7 days 37° C.; for Tau polymer concentration: tau 2.0 mg/mL, heparin 200 μg/mL, +control 3.00, −control 1.38. The protocol: (§3) Effect of the quinolines in the tau aggregation. Turbidimetric studies. Tau aggregation was monitored by means of its absorbance at λ 340 nm using UV spectrophotometry. Purified and highly concentrated tau protein from bovine brain (2.0 mg/mL) was re-suspended in MES 0.1 M pH 7.2 buffer and induced to polymerize in the form of PHFs in the presence of polyanions (heparin at a concentration of 200 μg/mL) at a final volume of 1.0 mL. This mixture was incubated at 37° C. and maintained under gentle agitation for 7 days. At the same time, another sample containing the tau protein, heparin (200 μg/mL) and the selected quinoline at different concentrations from 1.0 to 50 μM and a final volume of 1.0 mL was incubated in the same way, thus verifying the effect that quinolines have over tau aggregation. […] As an additional control the tau protein was replaced with water in order to measure the absorbance of these quinolines. Each sample was carried out in triplicate.
Effect of quinolines in tau aggregation. Sedimentation studies. After 7 days of incubation at 37° C. under gentle agitation, the sedimentation of the tau aggregates was conducted in the presence and in absence of quinolines. To this purpose, 400 μl were taken of each one of the samples prepared for the turbidimetric analysis and they were centrifuged at 42,000 g (18.000 rpm using the AH-650 rotor) at 37° C. for 25 min. The pellet obtained from each sample of this centrifugation was re-suspended in 50 μL of MES 0,1 M slightly alkaline (pH 7.2) buffer and the concentration of protein was established for each one of them. In this procedure, and because the sample volume is very small, a nanophotometer was used, measuring the concentration of the sedimented and re-suspended protein at λ 280 nm.

Data set [8] deals with mGluR 5 (Homo sapiens, UniProt P41594). To be noted: Yanamala et al. 2008; cited from earlier work.
Sequence of mGluR 5 (P41594 21-1212): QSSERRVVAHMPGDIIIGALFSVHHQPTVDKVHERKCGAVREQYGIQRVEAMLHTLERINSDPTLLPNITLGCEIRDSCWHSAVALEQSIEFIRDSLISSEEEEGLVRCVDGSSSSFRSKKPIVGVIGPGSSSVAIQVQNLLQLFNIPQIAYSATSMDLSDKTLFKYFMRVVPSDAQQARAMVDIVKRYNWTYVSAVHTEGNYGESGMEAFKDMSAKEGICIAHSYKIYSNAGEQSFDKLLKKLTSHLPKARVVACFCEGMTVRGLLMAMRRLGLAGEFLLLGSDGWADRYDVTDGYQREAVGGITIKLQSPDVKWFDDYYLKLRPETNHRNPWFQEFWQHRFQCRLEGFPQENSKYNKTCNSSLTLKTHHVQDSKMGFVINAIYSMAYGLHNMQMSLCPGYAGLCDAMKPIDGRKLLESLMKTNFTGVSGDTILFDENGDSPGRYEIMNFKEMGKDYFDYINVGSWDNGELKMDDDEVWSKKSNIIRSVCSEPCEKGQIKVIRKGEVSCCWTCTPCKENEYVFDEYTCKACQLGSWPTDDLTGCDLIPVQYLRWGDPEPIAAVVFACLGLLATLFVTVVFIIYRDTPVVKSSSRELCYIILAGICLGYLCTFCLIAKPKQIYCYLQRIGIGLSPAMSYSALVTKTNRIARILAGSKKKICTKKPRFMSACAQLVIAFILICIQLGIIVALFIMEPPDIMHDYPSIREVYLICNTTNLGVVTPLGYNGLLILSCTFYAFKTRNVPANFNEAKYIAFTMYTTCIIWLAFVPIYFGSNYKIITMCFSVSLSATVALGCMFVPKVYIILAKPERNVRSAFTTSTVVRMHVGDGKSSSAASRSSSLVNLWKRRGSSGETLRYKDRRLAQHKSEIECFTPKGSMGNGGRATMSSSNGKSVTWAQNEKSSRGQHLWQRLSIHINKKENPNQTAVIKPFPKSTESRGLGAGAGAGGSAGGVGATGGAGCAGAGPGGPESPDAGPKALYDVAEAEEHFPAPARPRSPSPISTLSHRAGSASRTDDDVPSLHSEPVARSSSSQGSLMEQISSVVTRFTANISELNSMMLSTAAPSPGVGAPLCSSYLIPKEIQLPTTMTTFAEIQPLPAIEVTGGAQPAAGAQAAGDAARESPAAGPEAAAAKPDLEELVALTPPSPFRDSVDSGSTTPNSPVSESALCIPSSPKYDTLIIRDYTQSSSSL
Data set [9] deals with tau protein from bovine brain. The settings on record: THQ 55 1.0 to 50 μM, FIG. 11. As to the method: as §3
The mark [10] stands for this setting: partition coefficient octanol/PBS buffer 0.1× pH 7.4, triplicate.
Where [11] appears, read: tau filaments induced with heparin.

Sequence of mGluR I (Q13255 19-1194): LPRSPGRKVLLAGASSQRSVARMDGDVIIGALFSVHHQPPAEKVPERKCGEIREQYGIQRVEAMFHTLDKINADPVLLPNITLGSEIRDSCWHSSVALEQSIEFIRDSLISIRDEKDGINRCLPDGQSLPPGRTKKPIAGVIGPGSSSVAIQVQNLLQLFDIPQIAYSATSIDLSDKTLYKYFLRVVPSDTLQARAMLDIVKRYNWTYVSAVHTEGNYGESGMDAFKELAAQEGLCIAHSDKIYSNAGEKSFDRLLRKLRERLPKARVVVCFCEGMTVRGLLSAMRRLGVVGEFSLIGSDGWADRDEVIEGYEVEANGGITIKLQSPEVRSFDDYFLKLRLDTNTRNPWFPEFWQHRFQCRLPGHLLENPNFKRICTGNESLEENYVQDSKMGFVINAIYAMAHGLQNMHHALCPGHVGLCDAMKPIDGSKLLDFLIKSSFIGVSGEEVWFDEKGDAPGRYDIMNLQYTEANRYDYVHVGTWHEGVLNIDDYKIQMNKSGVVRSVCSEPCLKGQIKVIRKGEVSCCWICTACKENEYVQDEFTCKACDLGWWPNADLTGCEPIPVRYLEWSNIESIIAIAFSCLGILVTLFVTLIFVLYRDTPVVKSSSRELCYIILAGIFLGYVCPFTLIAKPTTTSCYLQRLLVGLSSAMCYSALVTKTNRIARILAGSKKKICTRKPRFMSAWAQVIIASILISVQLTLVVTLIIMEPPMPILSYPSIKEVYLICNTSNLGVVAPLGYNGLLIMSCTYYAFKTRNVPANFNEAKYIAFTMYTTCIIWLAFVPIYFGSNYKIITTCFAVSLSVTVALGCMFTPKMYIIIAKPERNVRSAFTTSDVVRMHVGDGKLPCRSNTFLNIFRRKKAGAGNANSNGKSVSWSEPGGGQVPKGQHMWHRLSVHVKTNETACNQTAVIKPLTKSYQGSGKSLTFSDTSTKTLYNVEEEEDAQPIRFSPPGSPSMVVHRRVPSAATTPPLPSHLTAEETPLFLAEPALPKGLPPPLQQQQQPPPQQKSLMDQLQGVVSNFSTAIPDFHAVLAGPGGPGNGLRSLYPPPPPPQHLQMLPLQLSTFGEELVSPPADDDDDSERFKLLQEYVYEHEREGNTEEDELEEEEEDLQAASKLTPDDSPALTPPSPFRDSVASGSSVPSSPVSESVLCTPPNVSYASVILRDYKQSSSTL

With `Cc1cccc(-c2ccc3cc(C)ccc3n2)c1` [THQ 12S, 2-(5-methylphenyl), 6-(methyl)quinoline], the “Liposolubility expressed as Log P (in words)” value in data set [1] is reported as “optimal”. Besides, the logP in data set [1] (setting [10]) came to 2.58.

Consider `COc1ccc2nc(-c3ccc(C)cc3)ccc2c1` [THQ 3S, 2-(4-methylphenyl), 6-(O-methyl)quinoline], for which the “Log P (experimental)” value in [1] (setting [10]) is recorded as 0.434 + 0.005.

`Cc1ccc(-c2ccc3cc(C)ccc3n2)cc1` [THQ 4S, 2-(4methylphenyl), 6-(methyl)quinoline]: the pKi (usually −log10 of the Ki, conventionally taken in molar units) in data set [2] was less than 5.00. Besides, the “Displacement of the radioligand” value in [3] was “do not displace the radioligand”. For the same compound, the “Liposolubility expressed as Log P (in words)” value in [1] was “optimal”. The logP in [1] (setting [10]) is 2.66.

On to `O=C(Cc1ccccc1)c1ccc2nc3c(cc2c1)CCCO3` [R214127], for which the “Docking Energies” value in data set [4] was -7.34 kcal/mol.

In data set [5], `[3H]COc1ccc(CCN2CCC(Nc3nc4ccccc4n3Cc3ccc(F)cc3)CC2)cc1` [^3H-AST, [O-methyl-3H]-astemizol] registered a Bmax of 13.07 nM and a Bmax/Kd index of 3.316. Also, in [6], the Bmax/Kd index is listed as 3.00 and the “Affinity to tau filaments (in words)” value is “high affinity”. In data set [6] (setting [11]), this compound registered a Bmax of 5.7 pmol/nmol tau.

In the case of `COc1ccc(CCN2CCC(Nc3nc4ccccc4n3Cc3ccc(F)cc3)CC2)cc1` [^3H-AST, [O-methyl-3H]-astemizol], the figures for the negative logarithm of the Kd (pKd) in data set [5] and in data set [6] (setting [11]) were 8.40 and 8.73, respectively.

For `COc1ccc(CCN2CCC(Nc3nc4ccccc4n3Cc3ccc(F)cc3)CC2)cc1` [Ast, Astemizol, reference compound], in [7] (compound 10 μM), the Tau polymer concentration is on record as 2.84 + 0.002 mg/mL. Further, the “Affinity to tau filaments (in words)” value in data set [6] is reported as “high affinity”.

As for `Cc1cccc(C#Cc2ccccc2)n1` [MPEP], the “Docking Energies” value in data set [8] is -7.77 kcal/mol.

Turning to `Cc1ccc(-c2ccc3cccc(Br)c3n2)cc1` [THQ 9S, 2-(4-methylphenyl), 8-(bromo)quinoline], the logP in data set [1] (setting [10]) is -0.214.

Turning to `Cc1ccc2nc(-c3ccc(N)cc3)ccc2c1` [THQ 55, 2-(4-aminophenyl), 6-(methyl)quinoline], the pKi in [2] is less than 5.00. Besides, the “Displacement of the radioligand” value in data set [3] is listed as “do not displace the radioligand”. In addition, the “Effect over the auto-aggregation of tau protein (sedimented protein at λ 280 nm)” value in data set [7] is “pronounced inhibitory effect”. Further, the Tau polymer concentration in data set [7] (compound 1.0 μM) is given as 2.72 + 0.002 mg/mL; in [7] (compound 10 μM) it was 2.43 + 0.003 mg/mL; in data set [7] (compound 50.0 μM), 0.79 + 0.004 mg/mL. In data set [9], the “Inhibition of tau aggregation (absorbance at λ 340)” value was “high capacity to inhibit tau aggregation”. The “Liposolubility expressed as Log P (in words)” value in data set [1] is given as “optimal”. Besides, the logP in [1] (setting [10]) was 1.97.
